US20250034201A1, “PRODRUGS OF GANAXOLONE” (priority 2022, published 2025)

Assays:
[1] = Stability in simulated gastric fluid (SGF); format: in vitro ADME; settings: simulated gi fluid, pH 1.2
Method: (§1) The stability of exemplary compounds in simulated gastric fluid (SGF) and simulated intestinal fluid (SIF) was tested according to the following protocol.

[2] = Stability in simulated intestinal fluid (SIF); format: in vitro ADME; settings: simulated gi fluid, pH 6.8
Method: as §1

[3] = Rat liver microsomal stability; format: in vitro ADME
Method: (§2) For several compounds only human liver microsomal stability was tested. […] The microsomal assays were carried out with and without the addition of NADPH at a final concentration of 1 mM. For negative control samples, NADPH reagent was not added. […] Note that compounds undergo only Phase I metabolism in liver microsomes.
(§3) CLint=the intrinsic hepatic clearance (uL/min/mg), where CLint is equal to 0.693/(t1/2×Cmp)

in vitro [4] = format: in vitro ADME, human; settings: human, microsomes
Method: as §2

[5] = Dog liver microsomal stability; format: in vitro ADME; settings: dog, microsomes
Method: as §2, §3
Certain compounds were also tested in mice and dog liver microsome assays according to the protocol outlined above. […].

in vitro [6] = assay: in vitro
Dog plasma stability = format: in vitro ADME
Method: For each test compound, samples at a final concentration of 2 μg/mL were prepared in blank plasma of selected species. All samples were incubated at 37° C. on a 150-RPM orbital shaker, and an aliquot was removed at pre-determined time points (0, 15, 30, 60, and 120 minutes). Samples were precipitated with three volumes of acetonitrile containing propranolol as internal standard, and centrifuged for 10 min at 2000 g before LC/MS/MS analysis of the supernatant solutions.

[7] = Pharmacokinetic study with Compound 224 (IV 2 mg/kg, PO 10 mg/kg); settings: male, beagle, dog, plasma, analyte Compound 224, fasted male beagle dogs, mean
Method: Analysis time points for the IV arm were 0.083, 0.25, 0.5, 1, 2, 4, 8, 12, 24, 36 and 48 hours post dose and analysis time points for the PO arm were 0.25, 0.5, 1, 2, 4, 8, 12, 24, 36 and 48 hours post dose.

Q: With `CC(=O)[C@H]1CC[C@H]2[C@@H]3CC[C@H]4C[C@](C)(OC(=O)COC(=O)C(C)(C)O)CC[C@]4(C)[C@H]3CC[C@]12C` [Compound 224] as the compound, how does the “SGF (% remain, 60 min)” value ([1]; 1 h) read?
A: The value was 88%.

Q: And the half-life [1]?
A: Its half-life is 365 min.

Q: And the “SIF (% remain, 60 min)” value ([2]; 1 h)?
A: Its value is 60%.

Q: What about the half-life [2] of the same compound?
A: The half-life was 98 min.

Q: And the “Comments: production of GNX (ganaxolone) in rat liver microsomes” value ([3]; rat liver microsomes)?
A: Its value is “In rat no GNX produced;”.

Q: And the half-life ([3]; rat, microsomes)?
A: The half-life was 9.8 min.

Q: And the microsomal CLint ([3]; rat, microsomes)?
A: The microsomal CLint was 142 µL/min/mg.

Q: What about the “Rat Liver Microsomal Stability no NADPH, % remain 1 h” value ([3]; rat, microsomes, 1 h) of the same compound?
A: The value was 1.4%.

Q: What about the half-life (in vitro [4]) of the same compound?
A: Its half-life is 1.67 min.

Q: What about the microsomal CLint (in vitro [4]) of the same compound?
A: The microsomal CLint was 828 µL/min/mg.

Q: And the “Human Liver Microsomal Stability no NADPH, % remain 1 h” value (in vitro [4]; 1 h)?
A: Its value is 0.4%.

Q: And the half-life [5]?
A: The half-life was 7.1 min.

Q: And the microsomal CLint [5]?
A: The microsomal CLint was 196 µL/min/mg.

Q: What about the “Dog Liver Microsomal Stability no NADPH, % remain 1 h” value ([5]; 1 h) of the same compound?
A: Its value is 0.6%.

Q: And the “Human plasma t90” value (in vitro [6]; human)?
A: Its value is 6.5 min.

Q: What about the half-life (in vitro [6]; human, plasma) of the same compound?
A: The half-life was 43 min.

Q: And the “Rat plasma t90” value (in vitro [6]; rat)?
A: Its value is 2.16 min.

Q: What about the “Observations: stability / GNX production in rat plasma” value (in vitro [6]; rat, plasma) of the same compound?
A: Its value is “GNX produced in rat”.

Q: What about the half-life (in vitro [6]; rat, plasma) of the same compound?
A: Its half-life is 14.4 min.

Q: And the “Dog plasma t90” value (Dog plasma stability; dog)?
A: The value was 126 min.

Q: What about the half-life (Dog plasma stability; dog plasma) of the same compound?
A: The half-life was 838 min.

Q: And the Vd ([7]; Compound 224 PK Vss (L/kg))?
A: Its Vd is 5.92 L/kg.

Q: What about the Vd ([7]; Compound 224 PK Vz (L/kg)) of the same compound?
A: The Vd was 16.1 L/kg.
